pEC50: −log10 of the molar value.
What follows are compounds tested on plasmodium (assay: Malaria screen (SYBR green fluorescence, plasmodium parasitemia culture)). Conditions: 0.5% plasmodium parasitemia culture, 48 hours.
Assay type: cell-based
Method: Compound was added to a 0.5% plasmodium parasitemia culture for 48 hours, then treated with SYBR green (a dye with marked fluorescence enhancement upon contact with plasmodium DNA) and the fluorescence was measured in drug treated versus untreated cells to determine inhibitory effects (Smilkstein, et al., “Simple and inexpensive fluorescence-based technique for high-throughput antimalarial drug screening,” Antimicrob Agents Chemother, 2004 May; 48(5):1803-6. doi: 10.1128/AAC.48.5.1803-1806.2004. PMID: 15105138: PMCID: PMC400546).

| Compound | EC50 [µM] |
| --- | --- |
| CC(C)CCNc1ncnc2cc(N3CCNCC3)ccc12 [Compound 35] | 0.77 |
| CC(C)CCn1ccc2cc(N3CCN(c4ccc5c(ccn5CCC(C)C)c4)CC3)ccc21 [Compound 39] | 3 |
| CC(C)CCN(C)c1ncnc2cc(N3CCN(c4ccc5c(N(C)CCC(C)C)ncnc5c4)CC3)ccc12 [Compound 26] | 0.068 |
| CC(C)CC(=O)Nc1ncnc2cc(N3CCN(c4ccc5c(NC(=O)CC(C)C)ncnc5c4)CC3)ccc12 [Compound 43] | > 10 |
| COc1ccc(CNc2ncnc3cc(N4CCN(c5ccc6c(NCc7ccc(OC)cc7)ncnc6c5)CC4)ccc23)cc1 [Compound 20] | 0.028 |
| CC(C)CCNc1ncnc2cc(N3CCN(c4ccc5ccn(CCC(C)C)c5c4)CC3)ccc12 [Compound 34] | 0.2 |
| CN1CCC(Nc2ncnc3cc(N4CCN(c5ccc6c(NC7CCN(C)CC7)ncnc6c5)CC4)ccc23)CC1 [Compound 38] | 1.4 |

What follows are compounds tested on Hennes-20 cells (assay: Hennes-20 oncology screen (low vs high plating density, alamar Blue)). Conditions: 72 h.
Assay type: cell-based
Method: All compounds mentioned as active were tested in Hennes. Select hits from the Hennes screen were sent for additional anti-cancer testing.
To screen compounds for oncology activity Hennes-20 cells were plated at low (500 cells/well) versus high (15,000 cells/well) densities and treated with DMSO (vehicle) or dose-titration of compounds. The rationale for this screen is that an intrinsically toxic compound should kill cells regardless of density, including in Hennes-20 cells. However, a compound that selectively triggers the arrest of proliferation will inhibit cell growth when plated at a low density will appear cytotoxic due to inhibition of cell growth when plated at a low density but will appear non-toxic to cells plated at a high density where the cells are approaching confluence and the readout detected by a cell viability assay is already close to the maximum.
To conduct the Hennes-20 screen, two 96 well plates were seeded with Hennes 20 cells in parallel where one was plated at a density of 500 cells/well and the other was plated at a density of 15,000 cells/well. 90 uL of minimum essential media was added to each well and plates were placed in a 37 degrees Celsius incubator for 24 hours. The next day, 10 ul of media containing dilutions of compound in DMSO were added to each plate. Six wells on each plate received 10 ul of media containing only DMSO. Each well was gently mixed 5 times with a 100 ul pipette. Plates were incubated at 37 degrees Celsius for 72 hours then 10 uL of alamar Blue was added to each well. Wells were mixed 5 times then incubated at 37 degrees Celsius for […]. Plates were then read at 530/590.
The rationale for the screen is as follows: Hennes-20 cells lack endogenous apoptosis. Cells plated at low density will proliferate and approach confluence in 72 hrs. A drug that arrests proliferation may have its proliferation blocking effect masked by the triggering of endogenous apoptosis. However, in the Hennes line, lacking endogenous apoptosis, such an arrest is manifest as a dose-dependent maintenance at low cell density. Since the high-density cells are plated close to confluence, the difference between Alamar Blue cell survival readings after 72 hrs reflects the ability of the drug to block proliferation in the low density-plated cells. In the high density-plated cells any diminution of Alamar Blue readout vs vehicle control is due to intrinsic toxicity, not proliferation arrest, since cells were already at confluence. Thus, a compound that appears toxic (low Alamar Blue readings after 72 hrs) on the low-density plate, but which appears non-toxic (high Alamar Blue readings after 72 hrs) on the high-density plate, must be arresting proliferation, since intrinsic compound toxicity should be observed at both low and high cell densities, not selectively on the low-density plate.

| Compound | pEC50 |
| --- | --- |
| CCCCNc1ncnc2cc(N3CCN(c4cc(NCCC(C)C)c5cncnc5c4)C(C)C3)ccc12 (stereo not drawn) [Compound 67] | 6.30 |

Same assay, conditions: 72 h, Hennes-20 cells, 72 hours compound incubation, alamar Blue; read-out: EC50

| Compound | pEC50 |
| --- | --- |
| CC(C)CCNc1ncnc2cc(N3CCN(c4ccc5c(NCC(C)(C)C)ncnc5c4)CC3)ccc12 [Compound 24] | > 6.30 |
| CC(C)CCN(C)c1ncnc2cc(N3CCN(c4ccc5c(NCCC6CCNCC6)ncnc5c4)CC3)ccc12 [Compound 62] | < 4.90 |
| CC(C)CCNc1ncnc2cc(N3CCN(c4ccc5c(NCCc6ccncc6)ncnc5c4)CC3)ccc12 [Compound 85] | > 4.90 |
| CC(C)(C)CNc1ncnc2cc(N3CCN(c4ccc5c(NCCc6ccccn6)ncnc5c4)CC3)ccc12 [Compound 68] | 6.30 |
| CCCCNc1ncnc2cc(N3CCN(c4ccc5c(NCCc6ccccn6)ncnc5c4)CC3)ccc12 [Compound 69] | 6.30 |
| CCN(CCN(CC)c1ccc2c(NCCC(C)C)ncnc2c1)c1ccc2c(NCCC(C)C)ncnc2c1 [Compound 88] | > 4.90 |
| CN1CCN(CCNc2ncnc3cc(N4CCN(c5ccc6c(NCC(C)(C)C)ncnc6c5)CC4)ccc23)CC1 [Compound 75] | < 5.60 |
| CCCCNc1ncnc2cc(N3CCN(c4ccc5c(NCCCC)ncnc5c4)C(C)C3)ccc12 (stereo not drawn) [Compound 53] | 6.30 |
| CCCCNc1ncnc2cc(N3CCN(c4ccc5c(NCCc6ccccc6)ncnc5c4)CC3)ccc12 [Compound 56] | 4.90 |
| CCCCNc1ncnc2cc(N(C)CCN(CC)c3ccc4c(NCCCC)ncnc4c3)ccc12 [Compound 93] | > 5.60 |
| CCCCNc1ncnc2cc(N(CC)CCN(CC)c3ccc4c(NCCC(C)C)ncnc4c3)ccc12 [Compound 87] | 5.60 |
| CC(C)CCNc1ncnc2cc(N(C)CCN(C)c3ccc4c(NCC(C)(C)C)ncnc4c3)ccc12 [Compound 90] | 5.60 |
| CC(C)CCNc1ncnc2cc(N3CCN(c4ccc5c(NC(C)C)ncnc5c4)CC3)ccc12 [Compound 29] | > 6.30 |
| CC(C)CCNc1ncnc2cc(N3CCN(c4ccc5c(NCCCN(C)C)ncnc5c4)CC3)ccc12 [Compound 31] | > 4.90 |
| CC(C)(C)CNc1ncnc2cc(N3CCN(c4ccc5c(NCCc6ccncc6)ncnc5c4)CC3)ccc12 [Compound 77] | > 4.90 |
| CC(C)CCNc1cc(N2CCN(c3ccc4c(NCC(C)(C)C)ncnc4c3)CC2C)cc2ncncc12 (stereo not drawn) [Compound 66] | 5.60 |
| CC(C)CCN(C)c1ncnc2cc(N3CCN(c4ccc5c(NCCc6ccncc6)ncnc5c4)CC3)ccc12 [Compound 61] | 5.60 |
| CCCCNc1ncnc2cc(N(C)CCN(C)c3ccc4c(NCCC(C)C)ncnc4c3)ccc12 [Compound 91] | 5.60 |
| CC(C)CCNc1ncnc2cc(N3CCN(c4ccc5c(NCCN6CCN(C)CC6)ncnc5c4)CC3)ccc12 [Compound 82] | > 4.90 |
| CC(C)CCNc1ncnc2cc(N3CCN(c4ccc5c(NCCc6nccs6)ncnc5c4)CC3)ccc12 [Compound 81] | 6.30 |
| CC(C)CCNc1ncnc2cc(N3CC(C)N(c4ccc5c(NCCC(C)C)ncnc5c4)CC3C)ccc12 (stereo not drawn) [Compound 54] | 5.60 |
| CCCCNc1ncnc2cc(N3CCN(c4ccc5c(NCCC(C)C)ncnc5c4)CC3)ccc12 [Compound 22] | > 6.30 |
| CCCCNc1ncnc2cc(N3CCN(c4ccc5c(N6CCC(C)(C)CC6)ncnc5c4)CC3)ccc12 [Compound 70] | 6.30 |
| CCCCNc1ncnc2cc(N3CCN(c4ccc5c(NCCc6cccnc6)ncnc5c4)CC3)ccc12 [Compound 72] | 5.60 |
| CCCCNc1ncnc2cc(N3CCN(c4ccc5c(NCCC6CCNCC6)ncnc5c4)CC3)ccc12 [Compound 57] | < 4.90 |

| Compound | pEC50 |
| --- | --- |
| CCCCNc1ncnc2cc(N(C)CCCN(C)c3ccc4c(NCCC(C)C)ncnc4c3)ccc12 [Compound 98] | > 5.60 |
| CC(C)(C)CNc1ncnc2cc(N3CCN(c4ccc5c(N6CCC(C)(C)CC6)ncnc5c4)CC3)ccc12 [Compound 74] | 6.30 |
| CC(C)CNc1ncnc2cc(N3CCN(c4ccc5c(NCCc6ccccc6)ncnc5c4)CC3)ccc12 [Compound 64] | 5.60 |
| CC(C)CNc1ncnc2cc(N3CCN(c4ccc5c(NCCC6CCNCC6)ncnc5c4)CC3)ccc12 [Compound 63] | < 4.90 |
| CC(C)CNc1ncnc2cc(N3CCN(c4ccc5c(NCCc6ccncc6)ncnc5c4)CC3)ccc12 [Compound 65] | 5.60 |
| CCCCNc1ncnc2cc(N3CCN(c4ccc5c(NCCC(C)C)ncnc5c4)C(C)C3C)ccc12 (stereo not drawn) [Compound 52] | 5.60 |
| CC(C)CCNc1ncnc2cc(N3CCN(c4ccc5c(NCCC6CCCC6)ncnc5c4)CC3)ccc12 [Compound 80] | 6.30 |
| CCCCNc1ncnc2cc(N(C)CCN(C)c3ccc4c(NCCCC)ncnc4c3)ccc12 [Compound 89] | 6.30 |
| CC(C)(C)CNc1ncnc2cc(N3CCN(c4ccc5c(NCCc6ccccc6)ncnc5c4)CC3)ccc12 [Compound 58] | 4.90 |
| CCCCNc1ncnc2cc(N3CCN(c4ccc5c(NCCN6CCN(C)CC6)ncnc5c4)CC3)ccc12 [Compound 71] | < 5.60 |
| CCCCNc1ncnc2cc(N3CCN(c4ccc5c(NCCc6ccncc6)ncnc5c4)CC3)ccc12 [Compound 73] | 5.60 |
| CCN(CCN(C)c1ccc2c(NCC(C)(C)C)ncnc2c1)c1ccc2c(NCCC(C)C)ncnc2c1 [Compound 94] | > 5.60 |
| CC(C)CCNc1ncnc2cc(N3CCN(c4ccc5c(NCCc6ccccn6)ncnc5c4)CC3)ccc12 [Compound 84] | 6.30 |
| CC(C)CCN(C)c1ncnc2cc(N3CCN(c4ccc5c(NCCc6ccccc6)ncnc5c4)CC3)ccc12 [Compound 60] | 5.60 |
| CCCCNc1ncnc2cc(N(C)CCN(CC)c3ccc4c(NCCC(C)C)ncnc4c3)ccc12 [Compound 95] | > 5.60 |
| CCCCNc1ncnc2cc(N(CC)CCN(C)c3ccc4c(NCCC(C)C)ncnc4c3)ccc12 [Compound 92] | 5.60 |
| CCN(CCN(C)c1ccc2c(NCCC(C)C)ncnc2c1)c1ccc2c(NCCC(C)C)ncnc2c1 [Compound 96] | > 5.60 |
| CCN(CCN(CC)c1ccc2c(NCC(C)(C)C)ncnc2c1)c1ccc2c(NCCC(C)C)ncnc2c1 [Compound 86] | > 5.60 |
| CC(C)CCNc1ncnc2cc(N(C)CCCN(C)c3ccc4c(NCCC(C)C)ncnc4c3)ccc12 [Compound 99] | > 4.90 |
| CC(C)(C)CNc1ncnc2cc(N3CCN(c4ccc5c(NCCc6cccnc6)ncnc5c4)CC3)ccc12 [Compound 76] | 5.60 |
| CCCCNc1ncnc2cc(N3CCN(c4ccc5c(NCCC(C)C)ncnc5c4)CC3C)ccc12 (stereo not drawn) [Compound 51] | 6.30 |
| CC(C)CCNc1ncnc2cc(N3CCN(c4ccc5c(NCCc6cccnc6)ncnc5c4)CC3)ccc12 [Compound 83] | > 5.60 |
| CC(C)CCNc1ncnc2cc(N3CCN(c4ccc5c(NCC(C)C)ncnc5c4)CC3)ccc12 [Compound 8] | > 6.30 |
| CC(C)CCNc1ncnc2cc(N3CCN(c4ccc5c(NCCC(C)C)ncnc5c4)C(C)C3C)ccc12 (stereo not drawn) [Compound 55] | 6.30 |
| CC(C)(C)CNc1ncnc2cc(N3CCN(c4ccc5c(NCCC6CCNCC6)ncnc5c4)CC3)ccc12 [Compound 59] | < 4.90 |

Same assay, conditions: Hennes-20 cells, 72 hours compound incubation, alamar Blue; read-out: EC50

| Compound | pEC50 |
| --- | --- |
| CC(C)CCNc1ncnc2cc(N3CCN(c4ccc5c(N(C)CC(C)C)ncnc5c4)CC3)ccc12 [Compound 7] | > 6.30 |
| CC(C)CCNc1ncnc2cc(N3CCN(c4ccc5c(N(C)CC(C)C)ncnc5c4)CC3)ccc12 [Compound 23] | > 5.60 |

— patent publication US20240300905A1, “Quinazoline Compounds and Uses” (Prosetta Biosciences, Inc., priority 2023, published 2024)
